Results: patent US11369569B2, “Target-specific delivery of therapeutic agents” (University of Virginia Patent Foundation, priority 2015, dated 2022)
Where two headings read alike, the source gives them in different places.

Key:
[1] = system: cell types of interest in the infarct/border zone; assay: Immunofluorescence of heart sections to identify cell types bound by phage clones; format: in vivo, mice; settings: immunostaining
Description: Following ex vivo imaging of heart and liver, hearts from the mice under study were fixed in 4% paraformaldehyde for 1 h followed by equilibration in 30% sucrose for overnight at 4° C. The hearts were washed 3-4 times in DPBS (Dulbecco's phosphate-buffered saline) and placed in OCT medium (Sakura Finetek USA, Inc, Torrance, Calif.) and frozen by placing over liquid N2 vapors. The embedded tissue samples cut into 5-7 μm sections using a cryostat (Leica Microsystems Inc, Buffalo Grove, Ill.), for subsequent imaging with a fluorescence microscope fitted with appropriate filter sets (Olympus BX41). Cell types of interest in the infarct/border zone were identified by immunohistochemistry using the following antibodies: rat anti-mouse CD 31 at 1:250 dilution (endothelial marker)(BD Biosciences, San Jose, Calif.), rat anti-mouse myoglobin at 1:200 (cardiomyocyte marker) (Santa Cruz Biotechnology Inc, Dallas, Tex.), anti-alpha-smooth muscle actin (aSMA) conjugated with Alexa Fluor 488 at 1:200 (myofibroblast marker) (Sigma Chemical Co., St. Louis, Mo.), and rabbit anti-mouse c-Kit at 1:150 (cardiac progenitor cell marker) (Santa Cruz Biotechnology Inc, Dallas, Tex.). […] Appropriate secondary antibodies were employed as needed to identify the primary antibodies:goat anti-rat Alexa Fluor 488 (1:250) and goat anti-rabbit Alexa Fluor 488 (1:250) (Abcam, Cambridge, Mass.). Binding of I-1 and B-50 phage clones to cardiomyocytes and c-Kit+ cells was determined by flow cytometry. The RL-14 cardiomyocyte cell line (ATCC) was used to test the binding of fluorescently labeled I-1 phage (VivoTag 645) and myocardial infarct derived cardiac and bone marrow cells to test the binding of fluorescently labeled B-50 phage (VivoTag 680).

CRIP-2 = biological target: T1, CRIP-2 (Mus musculus, UniProt Q9DCT8); set-up: reference not given here; settings: via binding to CRIP-2 in myocardium and endothelium; cited from earlier work
T1 construct: host or cells: myocardium and endothelium of the heart
T1 sequence (Q9DCT8 1-208): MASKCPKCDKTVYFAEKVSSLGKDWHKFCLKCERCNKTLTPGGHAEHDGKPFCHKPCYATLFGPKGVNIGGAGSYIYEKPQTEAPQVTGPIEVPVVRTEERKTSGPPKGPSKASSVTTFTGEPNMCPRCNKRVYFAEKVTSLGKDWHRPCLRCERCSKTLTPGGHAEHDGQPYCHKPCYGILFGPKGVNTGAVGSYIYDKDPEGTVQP

[2] = system: cell types of interest in the infarct/border zone; assay: Immunofluorescence co-localization of peptide-conjugated liposomes with cell markers (JACoP, Mander's overlap); format: in vivo, mice; settings: post-MI hearts
VEGFR2 = biological target: T2, VEGFR2 (Mus musculus, UniProt P35918); format: in vivo; settings: for Vessel volume fraction (VVF) in infarct region: day 7 post-MI
T2 construct: from tissue; host or cells: endothelium of infarct/border zone in mouse heart (in vivo)

EF fragment of Hornerin = biological target: T3, EF fragment of Hornerin (Homo sapiens, UniProt Q86YZ3); assay: Biolayer interferometry of B-40 binding to hornerin EF fragments; settings: biotinylated B-40 peptide on streptavidin sensors
T3 construct: Different versions of the hornerin fragments containing EF domains were created; made in house
T3 sequence (Q86YZ3 1-81 limits assumed): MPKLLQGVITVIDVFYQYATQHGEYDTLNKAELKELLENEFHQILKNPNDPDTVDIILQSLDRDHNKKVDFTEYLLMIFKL
Description: FIG. 31 depicts biolayer interferometry to determine B-40 liposome binding to EF fragment of Hornerin. Using Fortebio octect system, B-40 liposomes binding to EF fragment was carried out. Streptavidin sensors were coated with Biotinylated EF fragments and their interaction with no peptide, I-1 and B-40 liposomes was tested.
FIG. 33 depicts biolayer interferometry to determine B-40 liposome binding to EF domains. Using Fortebio octect system, B-40 peptide binding to different EF fragments was carried out. Streptavidin sensors were coated with biotinylated B-40 peptide and its interaction with different fragments containing EF domains was carried out.

T2 sequence (P35918 20-1345): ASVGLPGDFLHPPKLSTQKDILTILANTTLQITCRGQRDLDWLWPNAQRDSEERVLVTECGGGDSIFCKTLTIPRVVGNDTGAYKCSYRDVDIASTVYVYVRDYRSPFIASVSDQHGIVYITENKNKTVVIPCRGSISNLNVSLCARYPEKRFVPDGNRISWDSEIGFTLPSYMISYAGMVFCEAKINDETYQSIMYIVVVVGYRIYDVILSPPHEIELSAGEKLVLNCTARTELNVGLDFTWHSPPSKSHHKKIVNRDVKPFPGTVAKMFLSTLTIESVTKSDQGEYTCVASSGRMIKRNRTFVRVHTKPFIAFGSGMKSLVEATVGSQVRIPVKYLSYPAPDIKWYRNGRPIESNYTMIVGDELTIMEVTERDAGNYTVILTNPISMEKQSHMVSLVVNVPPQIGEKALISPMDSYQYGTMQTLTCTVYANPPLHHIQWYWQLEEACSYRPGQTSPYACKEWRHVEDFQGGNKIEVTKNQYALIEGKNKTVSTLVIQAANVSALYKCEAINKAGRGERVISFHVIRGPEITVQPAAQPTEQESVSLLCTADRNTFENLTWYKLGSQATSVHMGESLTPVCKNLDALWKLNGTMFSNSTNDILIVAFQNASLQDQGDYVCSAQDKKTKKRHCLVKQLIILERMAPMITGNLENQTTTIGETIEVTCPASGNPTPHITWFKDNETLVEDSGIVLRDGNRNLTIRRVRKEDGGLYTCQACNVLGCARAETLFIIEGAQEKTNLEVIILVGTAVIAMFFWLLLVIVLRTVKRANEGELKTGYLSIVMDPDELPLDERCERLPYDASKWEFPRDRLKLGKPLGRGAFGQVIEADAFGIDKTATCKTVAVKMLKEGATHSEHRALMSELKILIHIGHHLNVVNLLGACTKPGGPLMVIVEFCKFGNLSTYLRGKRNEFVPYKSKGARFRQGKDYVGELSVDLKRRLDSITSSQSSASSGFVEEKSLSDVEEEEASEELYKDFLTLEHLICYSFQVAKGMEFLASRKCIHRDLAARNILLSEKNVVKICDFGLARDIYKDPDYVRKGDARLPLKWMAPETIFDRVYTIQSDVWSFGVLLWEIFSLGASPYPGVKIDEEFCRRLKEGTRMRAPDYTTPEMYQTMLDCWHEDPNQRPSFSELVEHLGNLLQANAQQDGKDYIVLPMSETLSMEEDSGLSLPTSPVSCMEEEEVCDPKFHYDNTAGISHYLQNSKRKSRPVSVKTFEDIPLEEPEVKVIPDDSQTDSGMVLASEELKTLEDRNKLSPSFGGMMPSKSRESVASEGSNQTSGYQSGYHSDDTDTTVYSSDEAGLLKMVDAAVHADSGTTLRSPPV

Compound: SHSNARS (listed as Homo sapiens) [B-27]
- Cell type / component for which phage clone is specific [1]: c-Kit+ cells

Compound: CRPPR [CRPPR-peptide]
- Targeting to the heart (CRIP-2): 47 fold

Compound: ATMSRAP (listed as Homo sapiens) [B-47]
- Cell type / component for which phage clone is specific [1]: endothelial cells

Compound: ESRQVTP (listed as Homo sapiens) [B-43]
- Cell type / component for which phage clone is specific [1]: extracellular matrix

Compound: AMRPPLN (listed as Homo sapiens) [B-42]
- Cell type / component for which phage clone is specific [1]: cardiomyocytes

Compound: GLSQLQR (listed as Homo sapiens) [B-50]
- Cell type / component for which phage clone is specific [1]: c-Kit+ cells
- Cell type for which peptide conjugated liposomes are specific [2]: c-Kit+ cells

Compound: Clc1ccc(Nc2nnc(Cc3ccncc3)c3ccccc23)cc1 [PTK787]
- Percent effective in reducing neovessel formation (VEGFR2; 20 mg/kg-d): 18%
- Vessel volume fraction (VVF) in infarct region (VEGFR2; 20 mg/kg-d): 0.052
- Percent effective in reducing neovessel formation (VEGFR2; 100 mg/kg-d): 65%
- Vessel volume fraction (VVF) in infarct region (VEGFR2; 100 mg/kg-d): 0.021
- Vessel volume fraction (VVF) in infarct region (VEGFR2; 100 mg/kg-d, listed as free PTK787): 0.022
- Median (ED50, bootstrap) (VEGFR2; 1000 nonparametric bootstrap data sets): 63 mg/kg-d
- Estimated (ED50) (VEGFR2; Imax model fit from vessel volume fraction): 63 mg/kg-d

Compound: SLLNRMP (listed as Homo sapiens) [B-40]
- Cell type / component for which phage clone is specific [1]: endothelial cells
- Cell type for which peptide conjugated liposomes are specific [2]: endothelial cells
- Binding to fragments containing EF domains (EF fragment of Hornerin): possible binding partner

Compound: TALPRLN (listed as Homo sapiens) [I-1]
- Cell type / component for which phage clone is specific [1]: cardiomyocytes
- Cell type for which peptide conjugated liposomes are specific [2]: cardiomyocytes

Compound: SDTWSSR (listed as Homo sapiens) [B-7]
- Cell type / component for which phage clone is specific [1]: myofibroblasts

Compound: RPPALAP (listed as Homo sapiens) [B-29]
- Cell type / component for which phage clone is specific [1]: myofibroblasts
- Cell type for which peptide conjugated liposomes are specific [2]: myofibroblasts

Compound: NCP: intentionally off-target peptide (Panc-27) previously shown to be specific for pancreatic cancer cells (KTLLPTP) [reference compound]
- Cell type for which peptide conjugated liposomes are specific [2]: non-specifically taken up by macrophages

Compound: TMQHDG (listed as Homo sapiens) [B-11]
- Cell type / component for which phage clone is specific [1]: extracellular matrix
